Measured values from US10118935B2, “Melampomagnolide B dimers” (priority 2014, dated 2018).
Read-outs that look alike come from different tables or passages of the source.

Key:
SF-268 = experiment: NCI 60 cell line five dose, CNS Cancer
SW-620 = experiment: NCI 60 cell line five dose, Colon Cancer
SN12C = experiment: NCI 60 cell line five dose, Renal Cancer
TK-10 = experiment: NCI 60 cell line five dose, Renal Cancer
MDA-MB-231/ATCC = experiment: NCI 60 cell line five dose, Breast Cancer
MDA-MB-468 = experiment: NCI 60 cell line five dose, Breast Cancer
NCI/ADR-RES = experiment: NCI 60 cell line five dose, Ovarian Cancer; settings: NCI/ADR-
DU-145 = experiment: NCI 60 cell line five dose, Prostate Cancer
NCI-H23 = experiment: NCI 60 cell line five dose, Non-Small Cell Lung Cancer
NCI-H322M = experiment: as above
NCI-H522 = experiment: as above

C=C1C(=O)O[C@H]2[C@H]1CC/C(COC(=O)NCCCCCCCCNC(=O)OC/C1=C/CC[C@@]3(C)O[C@H]3[C@H]3OC(=O)C(=C)[C@@H]3CC1)=C\CC[C@@]1(C)O[C@@H]21 [JVM 3-62, bis(((1aR,7aS, 10aS, 10bS, E)-1a-Methyl-8-methylene-9-oxo-1a,2,3,6,7,7a,8,9,10a,10b-decahydrooxireno[2′,3′:9,10]cyclodeca[1,2-b]furan-5-yl)methyl)octane-1,8-diyldicarbamate]
Percent Growth (HL-60(TB); Log10 Concentration −4.0): −39%
Percent Growth (HL-60(TB); Log10 Concentration −5.0): −37%
Percent Growth (HL-60(TB); Log10 Concentration −6.0): −6%
Percent Growth (HL-60(TB); Log10 Concentration −7.0): 92%
Percent Growth (HL-60(TB); Log10 Concentration −8.0): 103%
GI50 (HL-60(TB); molar): 0.268 µM
CC50 (HL-60(TB); read-out: LC50, molar): > 100 µM
Percent Growth (SF-268; Log10 Concentration −4.0): −59%
Percent Growth (SF-268; Log10 Concentration −5.0): −66%
Percent Growth (SF-268; Log10 Concentration −6.0): 50%
Percent Growth (SF-268; Log10 Concentration −7.0): 104%
Percent Growth (SF-268; Log10 Concentration −8.0): 101%
GI50 (SF-268; molar): 0.999 µM
TGI (SF-268; molar): 2.69E−6
CC50 (SF-268; read-out: LC50, molar): 7.24 µM
Percent Growth (SW-620; Log10 Concentration −4.0): −77%
Percent Growth (SW-620; Log10 Concentration −5.0): −79%
Percent Growth (SW-620; Log10 Concentration −6.0): −18%
Percent Growth (SW-620; Log10 Concentration −7.0): 91%
Percent Growth (SW-620; Log10 Concentration −8.0): 91%
GI50 (SW-620; molar): 0.239 µM
TGI (SW-620; molar): 6.86E−7
CC50 (SW-620; read-out: LC50, molar): 3.37 µM
Percent Growth (SN12C; Log10 Concentration −4.0): −59%
Percent Growth (SN12C; Log10 Concentration −5.0): −65%
Percent Growth (SN12C; Log10 Concentration −6.0): −7%
Percent Growth (SN12C; Log10 Concentration −7.0): 91%
Percent Growth (SN12C; Log10 Concentration −8.0): 100%
GI50 (SN12C; molar): 0.264 µM
CC50 (SN12C; read-out: LC50, molar): 5.49 µM
Percent Growth (TK-10; Log10 Concentration −4.0): −99%
Percent Growth (TK-10; Log10 Concentration −5.0): −98%
Percent Growth (TK-10; Log10 Concentration −6.0): −7%
Percent Growth (TK-10; Log10 Concentration −7.0): 97%
Percent Growth (TK-10; Log10 Concentration −8.0): 92%
GI50 (TK-10; molar): 0.284 µM
TGI (TK-10; molar): 8.56E−7
CC50 (TK-10; read-out: LC50, molar): 2.95 µM
Percent Growth (MDA-MB-231/ATCC; Log10 Concentration −4.0): −80%
Percent Growth (MDA-MB-231/ATCC; Log10 Concentration −5.0): −78%
Percent Growth (MDA-MB-231/ATCC; Log10 Concentration −6.0): −47%
Percent Growth (MDA-MB-231/ATCC; Log10 Concentration −7.0): 92%
Percent Growth (MDA-MB-231/ATCC; Log10 Concentration −8.0): 99%
GI50 (MDA-MB-231/ATCC; molar): 0.2 µM
TGI (MDA-MB-231/ATCC; molar): 4.58E−7
CC50 (MDA-MB-231/ATCC; read-out: LC50, molar): 1.24 µM
Percent Growth (MDA-MB-468; Log10 Concentration −4.0): −70%
Percent Growth (MDA-MB-468; Log10 Concentration −5.0): −81%
Percent Growth (MDA-MB-468; Log10 Concentration −6.0): −43%
Percent Growth (MDA-MB-468; Log10 Concentration −7.0): 86%
Percent Growth (MDA-MB-468; Log10 Concentration −8.0): 100%
GI50 (MDA-MB-468; molar): 0.19 µM
TGI (MDA-MB-468; molar): 4.62E−7
CC50 (MDA-MB-468; read-out: LC50, molar): 1.5 µM
Percent Growth (NCI/ADR-RES; Log10 Concentration −4.0): −57%
Percent Growth (NCI/ADR-RES; Log10 Concentration −5.0): 21%
Percent Growth (NCI/ADR-RES; Log10 Concentration −6.0): 92%
Percent Growth (NCI/ADR-RES; Log10 Concentration −7.0): 111%
Percent Growth (NCI/ADR-RES; Log10 Concentration −8.0): 103%
GI50 (NCI/ADR-RES; molar): 3.91 µM
TGI (NCI/ADR-RES; molar): 1.87E−5
CC50 (NCI/ADR-RES; read-out: LC50, molar): 82 µM
Percent Growth (DU-145; Log10 Concentration −4.0): −100%
Percent Growth (DU-145; Log10 Concentration −5.0): −99%
Percent Growth (DU-145; Log10 Concentration −6.0): 56%
Percent Growth (DU-145; Log10 Concentration −7.0): 105%
Percent Growth (DU-145; Log10 Concentration −8.0): 103%
GI50 (DU-145; molar): 1.1 µM
TGI (DU-145; molar): 2.30E−6
CC50 (DU-145; read-out: LC50, molar): 4.81 µM
Percent Growth (NCI-H23; Log10 Concentration −4.0): −78%
Percent Growth (NCI-H23; Log10 Concentration −5.0): −85%
Percent Growth (NCI-H23; Log10 Concentration −6.0): 27%
Percent Growth (NCI-H23; Log10 Concentration −7.0): 100%
Percent Growth (NCI-H23; Log10 Concentration −8.0): 100%
GI50 (NCI-H23; molar): 0.485 µM
TGI (NCI-H23; molar): 1.74E−6
CC50 (NCI-H23; read-out: LC50, molar): 4.86 µM
Percent Growth (NCI-H322M; Log10 Concentration −4.0): −91%
Percent Growth (NCI-H322M; Log10 Concentration −5.0): −51%
Percent Growth (NCI-H322M; Log10 Concentration −6.0): 100%
Percent Growth (NCI-H322M; Log10 Concentration −7.0): 104%
Percent Growth (NCI-H322M; Log10 Concentration −8.0): 107%
GI50 (NCI-H322M; molar): 2.14 µM
Percent Growth (NCI-H522; Log10 Concentration −4.0): −66%
Percent Growth (NCI-H522; Log10 Concentration −5.0): −75%
Percent Growth (NCI-H522; Log10 Concentration −6.0): −57%
Percent Growth (NCI-H522; Log10 Concentration −7.0): 89%
Percent Growth (NCI-H522; Log10 Concentration −8.0): 86%
GI50 (NCI-H522; molar): 0.186 µM
TGI (NCI-H522; molar): 4.07E−7
CC50 (NCI-H522; read-out: LC50, molar): 0.893 µM
